Experiments:
[1] = system: HSC line LX-2; assay: PDGF-induced HSC proliferation in LX-2; type: cell-based, human; details: FIG. 5a
Procedure: (§1) A human HSC line (LX-2, Milipore, U.S.A.) was plated in a 6-well plate, and grown to confluency in DMEM supplemented with 1% penicillin-streptomycin (Hyclone, U.S.A.) and 2% fetal bovine serum (Hyclone, U.S.A.) at 37° C. in a 5% CO2 incubator. For a further experiment, the confluent HSC line was incubated in an FBS-free medium, instead of the 2% FBS-added medium.

[2] = system: Smad3 and p300; assay: Smad3-p300 interaction, Smad3 acetylation and AMPK-p300 binding in LX-2 (immunoprecipitation); type: cell-based, human
Procedure: as §1
Total fraction protein was reacted with corresponding antibodies at 4° C. for 12 hours or more. An antigen-antibody conjugate was reacted with protein G-agarose at 4° C. for 2 hours to precipitate, and then reacted with 2× Laemmli buffer. The extracted protein was observed by an immunochemical method.
According to existing reports, AMPK activation in HSCs inhibits the interaction between Smad3 and p300 and inhibits the expression of a liver fibrosis-inducing factor through elevation of proteasomal degradation of the transcriptional coactivator p300. Thus, the influence of the GPR119 ligand on the interaction between Smad2/Smad3 and p300 was examined.
Subsequently, in the present invention, a mechanism for inhibiting the Smad-p300 interaction due to AMPK activation was investigated.

[3] = system: cAMP/PKA (cyclic AMP/Protein kinase A); assay: activation of GPR119 signaling pathway cAMP/PKA, with PKA inhibitor H-89; type: cell-based; details: FIG. 4a
Procedure: First, when a PKA inhibitor H-89 was treated, a change in action of the GPR119 ligand was examined.

[4] = system: Smad2/Smad3; assay: TGFβ1-elevated Smad2/Smad3 phosphorylation and nuclear translocation in LX-2; type: cell-based, human
Procedure: as §1
A whole cell lysate and a nuclear fraction were separated according to a conventional method. More specifically, the whole cell lysate was obtained by lysing cells washed with phosphate buffered saline (PBS) with a lysis buffer [10 mM Tris-HCl (pH 7.1), 100 mM NaCl, 1 mM EDTA, 10% glycerol, 0.5% Triton X-100, 0.5% Nonidet P-40, 1 mM dithiothreitol and 0.5 mM phenylmethylsulfonyl fluoride (PMSF)] at 4° C. for 30 minutes, and centrifuging the resulting solution at 14,000×g for 15 minutes to obtain a supernatant. To obtain the nuclear fraction, a low-osmotic pressure buffer containing 10 mM HEPES (pH 7.9), 10 mM KCl, 0.1 mM EDTA, 1 mM DTT and 0.5 mM PMSF was added and reacted at 4° C. for 10 minutes. Following addition of 10% Nonidet P-40 and vortexing for 10 seconds, the supernatant obtained by centrifugation at 13,000 rpm for 3 minutes was removed, and the remaining precipitate was washed three times with a low-osmotic pressure buffer. The precipitate was mixed with a high-osmotic pressure buffer [20 mM HEPES (pH 7.9), 400 mM NaCl, 1 mM EDTA, 1 mM DTT and 1 mM PMSF] and vortexed again at 4° C. for 10 minutes to induce a reaction for 20 minutes. Following centrifugation at 13,000 rpm for 10 minutes, a supernatant was obtained to be used as a nuclear fraction. A protein concentration was quantified using a protein quantify kit of PRO-MEASURE™ protein measurement solution (iNtRON Biotechnology, South Korea) according to the Bradford assay.
Sodium dodecylsulfate-polyacrylamide gel electrophoresis (SDS-PAGE) was performed using a gel electrophoresis device (Mighty Small SE 250, Hoefer Scientific Instruments, San Francisco) according to the method established by the inventors. […]

[5] = system: p300; assay: p300 protein and mRNA expression in LX-2; type: cell-based, human
Procedure: as §1
(§2) Sodium dodecylsulfate-polyacrylamide gel electrophoresis (SDS-PAGE) was performed using a gel electrophoresis device (Mighty Small SE 250, Hoefer Scientific Instruments, San Francisco) according to the method established by the inventors. A lysed cell fraction was diluted with a sample dilution buffer [63 mM Tris (pH. 6.8), 10% glycerol, 2% SDS, 0.0013% bromophenol blue, 5% β-mercaptoethanol], and subjected to electrophoresis in an electrode buffer (15 g Tris, 72 g glycerin and 5 g SDS contained in an 1 L solution) using a 8-12% gel. After electrophoresis, the gel was transferred to a nitrocellulose membrane to transfer proteins using an electrophoresis device for transfer in a transfer buffer (25 mM Tris, 192 mM glycerin, 20% v/v methanol (pH. 8.3)] at 40 mA for 3 hours. The nitrocellulose membrane was reacted with first antibodies, reacted with horseradish peroxidase-conjugated goat anti-rabbit IgG and horseradish peroxidase-conjugated goat anti-mouse IgG as secondary antibodies for 1 hour, and visualized using an ECL chemiluminescence system (Amersham, Gaithesberg, Mass.).
Thereafter, in the present invention, the influence of the GPR119 ligand on p300 expression was observed. […] From the result, it was assumed that a decrease in the expression of the p300 protein due to the GPR119 ligand could be caused by proteasomal degradation, and therefore the expression of the p300 protein was observed using a proteasome inhibitor, which is MG132.

[6] = system: mouse embryonic fibroblasts (MEFs); assay: collagen I and α-SMA protein expression in mouse embryonic fibroblasts (western blot); type: cell-based; details: FIG. 2b
Procedure: as §2

[7] = system: AMP-activated protein kinase (AMPK); assay: AMPK activation (AMPK and ACC phosphorylation) in LX-2; type: cell-based, human; details: LX-2, time-dependent treatment; FIG. 4b
Procedure: as §1
Sodium dodecylsulfate-polyacrylamide gel electrophoresis (SDS-PAGE) was performed using a gel electrophoresis device (Mighty Small SE 250, Hoefer Scientific Instruments, San Francisco) according to the method established by the inventors. A lysed cell fraction was diluted with a sample dilution buffer [63 mM Tris (pH. 6.8), 10% glycerol, 2% SDS, 0.0013% bromophenol blue, 5% β-mercaptoethanol], and subjected to electrophoresis in an electrode buffer (15 g Tris, 72 g glycerin and 5 g SDS contained in an 1 L solution) using a 8-12% gel. […]

[8] = system: C57BL/6 mice with liver fibrosis induced by carbon tetrachloride; assay: carbon tetrachloride (CCl4)-induced liver fibrosis animal model; type: in vivo, mouse; details: 40 mg/kg oral once a day 5 days a week, 3 weeks, FIG. 3a
Procedure: 6-week-old male C57BL/6J mice (Joongang laboratory animal, Seoul) were acclimated in a laboratory environment for 1 week with solid feed, and randomly arranged in control groups and experimental groups according to randomized block design. Then, carbon tetrachloride (1 ml/kg) was administered to 6-week-old male C57BL/6 mice (Joongang laboratory animal, Seoul) twice a week for three weeks to induce liver fibrosis, and a GPR119 ligand (10 mg/kg) suspended in 40% PEG400 was orally administered thereto once a day for five days per week. For liver fibrosis models induced by dimethylnitrosamine (DMN), DMN (10 mg/kg) was administered to mice three times a week to induce liver fibrosis. As the control group, a vehicle-treated group was used. After termination of the experiment, the laboratory animals were fasted for 12 hours or more, and anesthetized with Zoletil to obtain blood and the liver, and the liver was washed with 0.1 M phosphate buffered saline (PBS; pH 7.4) and weighed. The blood obtained from the abdominal aorta was centrifuged in an SST tube at 3000×RPM for 20 minutes to isolate the serum.
For the above-mentioned laboratory animals, serum alanine transaminase (ALT), aspartate transaminase (AST), total bilirubin (T-BIL) and direct bilirubin (D-BIL) were analyzed using an automated hematology analyzer, Spectrum [(Abbott Laboratories, Abbott Park, Ill.)].
The liver samples obtained as described above were prepared into sections, and the tissue section was fixed with 10% buffered neutral formalin and embedded in paraffin. Afterward, the resulting section was sliced to a 4-μm thickness, and put on a slide to fix a specimen, stained with sirius red, and observed using an optical microscope.
A predetermined amount of liver tissue was homogenized in a mortar with liquid nitrogen and a lysis buffer, and the resulting tissue solution was transferred into a new tube and then vortexed. The tissue solution was centrifuged at 14,000 rpm and 4° C. for 20 minutes, and the intermediate layer was extracted to quantify a protein by a Bradford method. 30 μg of proteins were analyzed by electrophoresis using an SDS polyacrylamide gel, and the change of protein expression was analyzed by western blot.
To examine improvement of liver fibrosis by the GPR119 ligand, in an animal model having liver fibrosis induced by carbon tetrachloride (CCl4), an effect of the GPR119 ligand on inhibiting liver fibrosis was observed.
First, 1 ml/kg of carbon tetrachloride was intraperitoneally administered twice a week, and also orally administered with the GPR119 ligand (MBX-2982) at doses of 20 and 40 mg/kg, respectively, once a day for 5 days a week. Three weeks later, liver tissue was extracted, subjected to sirius red staining for confirming collagen production and immunohistochemical staining for confirming expression of a HSC activation marker, that is, α-SMA, and then compared with a control group and a carbon tetrachloride only-treated group.

[9] = LX-2 treated with ligand alone, FIG. 4h

Smad3 acetylation elevated by TGFβ1 ([2]; LX-2, FIG. 4e): considerably inhibited
interaction between Smad3 and p300 elevated by TGFβ1 ([2]; LX-2, FIG. 4e): considerably inhibited
binding of activated AMPK to p300 ([2]; LX-2 treated with ligand alone, FIG. 4g): directly bound to p300
cAMP activation [3]: observed
action on inhibiting collagen I and TGFβ expression when PKA inhibitor H-89 was treated ([3]; with H-89): not offset
AMPK activation (AMPK and ACC phosphorylation) [7]: highly activated
SMILES: CCc1cnc(N2CCC(c3nc(COc4ccc(-n5cnnn5)cc4)cs3)CC2)nc1 [MBX-2982, 4-((4-(1H-tetrazol-1-yl)phenoxy)methyl)-2-(1-(5-ethylpyrimidin-2-yl)piperidin-4-yl)thiazole]
HSC proliferation induced by PDGF [1]: inhibited
nuclear translocation of Smad2/Smad3 elevated by TGFβ1 ([4]; LX-2, FIG. 2e): inhibited
phosphorylation of Smad2/Smad3 elevated by TGFβ1 ([4]; LX-2, FIG. 2e): inhibited
inhibitory action on phosphorylation of Smad3 activated by TGFβ1, under AMPK inhibition ([4]; compound C / DN-AMPK, FIG. 4d): partially recovered by AMPK inhibition, but not completely offset
expression of the p300 protein [5, 9]: reduced depending on the concentration
mRNA expression of p300 [5, 9]: no influence
expression of the p300 protein decreased by ligand, with proteasome inhibitor MG132 ([5]; with MG132 treatment, FIG. 4i): recovered
collagen I expression [6]: inhibited
α-SMA expression [6]: inhibited
collagen production (sirius red staining) in liver tissue [8]: significantly reduced
α-SMA expression (immunohistochemical staining) in liver tissue [8]: significantly reduced

From patent US9895370B2, “Pharmaceutical composition for preventing or treating of cirrhosis of liver comprising G protein coupled receptor 119 ligand as an active ingredient” (DONGGUK UNIVERSITY INDUSTRY—ACADEMIC COOPERATION FOUNDATION, priority 2015, dated 2018)
